According to patent US9573884B2 (priority 2010, dated 2017):
Where “and” joins values, the source holds several entries; their conditions need not be identical. Equal entries are not always repeated.

Key:
Assay type in all cases: cell-based
Staphylococcus aureas = test system: Staphylococcus aureas
[1] = test system: Pseudomonas aeruginosa and Staphylococcus aureas
Pseudomonas aeruginosa = test system: Pseudomonas aeruginosa

For `CC/C=C/CCCCCCCC(=O)NCCN1CC[N+](C)=C1CCCCCCC/C=C/CC` [C12-13, C12 DETA Quat], the “% Kill” value (Staphylococcus aureas) was 48.3% and 33.1%, the “Overall Rating” value [1] was “good” and the “% Kill” value (Pseudomonas aeruginosa) was 27.1% and 13.7%.
